Literature values as cited in patent publication US20220202699A1 (priority 2020, published 2022).

Assays:
[1] = in vivo
[2] = test system: Toll-like receptors (TLR); conditions: suppress innate immunity
influenza A virus [3] = test system: influenza A virus
influenza A virus [4] = test system: influenza A virus; remark: listed apart in the source
[5] = test system: inflammatory cell infiltrates (neutrophils and lymphocytes); conditions: in vivo

| SMILES | bronchodilator effect [1] | functioning as deactivators of Toll-like receptors (TLR) [2] | binding of the influenza A virus to the surrogate host cells (influenza A virus [3]) | membrane convergence of influenza A and host cell (influenza A virus [3]; influenza A, model MDCK cells) | binding affinity for the influenza A virus (influenza A virus [4]) | virus-induced proinflammatory cytokines [5] |
| --- | --- | --- | --- | --- | --- | --- |
| CC(C)(C)NCC(O)c1ccc(O)c(CO)c1 (stereo not drawn) [Albuterol] | effective bronchodilator | – | – | – | – | – |
| CCCCC/C=C\C/C=C\C/C=C\C/C=C\CCCC(=O)OC(COC(=O)CCCCCCCCCCCCCCCCC)COP(=O)(O)OC1C(O)C(O)C(O)C(O)C1O (stereo not drawn) [PI, phosphatidyl inositol] | – | deactivators of Toll-like receptors | prevent the binding | inhibited | high binding affinity | reduced |
